Patent US11345708B2, “Substituted imidazo[1,2-a]imidazoles as modulators of metabotropic glutamate receptor 4 activity” (Hoffmann-La Roche Inc., priority 2017, dated 2022)

Experiments:
rodent = settings: 6-OHDA rodent model of PD; cited from earlier work
mice [1] = settings: reported by Addex 2010; cited from earlier work
mice [2] = settings: reported by Addex 2010; cited from earlier work; remark: listed apart in the source
rats = settings: cited from earlier work
mice [3] = settings: mice treated with MPTP; cited from earlier work
human mGlu4 receptor = target: T1, human mGlu4 receptor (Homo sapiens, UniProt Q14833); test: Ca2+ mobilization in vitro assay on recombinant human mGlu4 expressed in HEK293 cells; assay type: cell-based; settings: HEK-293 cells stably expressing human mGlu4; L-AP4 added at EC20; Fluo-4 fluorescence; read-out: EC50 (uM) mGlu4 PAM
T1 construct: expressed in transfected cells; host or cells: HEK-293 (monoclonal, stably transfected)
Experimental: Determination of EC50 Values Using a Ca2+ Mobilization In Vitro Assay on Recombinant Human mGlu4 Expressed in HEK293 Cells:
A monoclonal HEK-293 cell line stably transfected with a cDNA encoding for the human mGlu4 receptor was generated; for the work with mGlu4 Positive Allosteric Modulators (PAMs), a cell line with low receptor expression levels and low constitutive receptor activity was selected to allow the differentiation of agonistic versus PAM activity. Cells were cultured according to standard protocols (Freshney, 2000) in Dulbecco's Modified Eagle Medium with high glucose supplemented with 1 mM glutamine, 10% (vol/vol) heat-inactivated bovine calf serum, Penicillin/Streptomycin, 50 μg/ml hygromycin and 15 μg/ml blasticidin (all cell culture reagents and antibiotics from Invitrogen, Basel, Switzerland).
About 24 hrs before an experiment, 5×10^4 cells/well were seeded in poly-D-lysine coated, black/clear-bottomed 96-well plates. The cells were loaded with 2.5 μM Fluo-4 AM in loading buffer (1×HBSS, 20 mM HEPES) for 1 hr at 37° C. and washed five times with loading buffer. The cells were transferred into a Functional Drug Screening System 7000 (Hamamatsu, Paris, France), and 11 half logarithmic serial dilutions of test compound at 37° C. were added and the cells were incubated for 10-30 min. with on-line recording of fluorescence. Following this pre-incubation step, the agonist (2S)-2-amino-4-phosphonobutanoic acid (L-AP4) was added to the cells at a concentration corresponding to EC20 with on-line recording of fluorescence; in order to account for day-to-day variations in the responsiveness of cells, the EC20 of L-AP4 was determined immediately ahead of each experiment by recording of a full dose-response curve of L-AP4.
Responses were measured as peak increase in fluorescence minus basal (i.e. fluorescence without addition of L-AP4), normalized to the maximal stimulatory effect obtained with saturating concentrations of L-AP4. Graphs were plotted with the % maximal stimulatory using XLfit, a curve fitting program that iteratively plots the data using Levenburg Marquardt algorithm. The single site competition analysis equation used was y=A+((B−A)/(1+((x/C)D))), where y is the % maximal stimulatory effect, A is the minimum y, B is the maximum y, C is the EC50, x is the log 10 of the concentration of the competing compound and D is the slope of the curve (the Hill Coefficient). From these curves the EC50 (drug concentration at which 50% of the maximal receptor activation was achieved), the Hill coefficient as well as the maximal response in % of the maximal stimulatory effect obtained with saturating concentrations of L-AP4 were calculated (see Fig. 1).
A depression of the signal observed after addition of the EC20 concentration of L-AP4 was indicative of an inhibitory activity of the test compound.

T1 sequence (Q14833 33-912): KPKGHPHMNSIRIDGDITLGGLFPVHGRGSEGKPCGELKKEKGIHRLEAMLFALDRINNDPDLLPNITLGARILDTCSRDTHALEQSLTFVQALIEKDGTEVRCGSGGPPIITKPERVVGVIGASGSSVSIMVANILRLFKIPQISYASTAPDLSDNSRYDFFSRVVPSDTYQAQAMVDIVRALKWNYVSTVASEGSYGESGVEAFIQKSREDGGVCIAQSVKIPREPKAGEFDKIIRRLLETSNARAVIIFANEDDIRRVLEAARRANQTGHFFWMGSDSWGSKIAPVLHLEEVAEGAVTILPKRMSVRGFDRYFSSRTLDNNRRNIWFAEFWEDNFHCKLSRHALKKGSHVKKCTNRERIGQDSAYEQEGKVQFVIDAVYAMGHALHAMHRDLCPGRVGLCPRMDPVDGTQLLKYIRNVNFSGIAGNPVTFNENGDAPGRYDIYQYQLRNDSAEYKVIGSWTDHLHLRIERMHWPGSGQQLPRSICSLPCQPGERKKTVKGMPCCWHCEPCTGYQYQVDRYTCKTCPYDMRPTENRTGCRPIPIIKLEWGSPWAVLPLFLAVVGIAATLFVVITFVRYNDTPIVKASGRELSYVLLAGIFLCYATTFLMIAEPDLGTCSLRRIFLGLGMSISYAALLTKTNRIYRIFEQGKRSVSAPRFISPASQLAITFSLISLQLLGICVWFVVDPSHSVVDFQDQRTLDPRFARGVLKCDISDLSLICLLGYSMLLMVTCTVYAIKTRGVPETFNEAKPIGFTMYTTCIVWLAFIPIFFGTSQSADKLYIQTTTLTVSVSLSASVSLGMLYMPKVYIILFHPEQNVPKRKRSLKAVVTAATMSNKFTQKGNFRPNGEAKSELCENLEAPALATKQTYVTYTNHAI

For `N[C@@H](CCP(=O)(O)O)C(=O)O` [L-AP4, (2S)-2-amino-4-phosphonobutanoic acid], the neuroprotection (rodent) is listed as “neuroprotective effects”.
For `Cc1ccnc(Nc2nc(-c3cn[nH]c3)c(C)s2)n1` [ADX88178], the “activity in marble burying test” value (mice [1]) is listed as “active”, the “activity in EPM” value (mice [2]) is listed as “active” and the “profile in rat EPM test” value (rats; rat, after oral dosing) is listed as “anxiolytic-like profile”. The “activity in EPM” value (rats; rats, reported by Addex 2010) was “active”.
In the case of `O=C(Nc1ccccc1)C12CC1/C(=N\O)c1ccccc1O2` (single isomer, unassigned; (-)) [(−)-PHCCC], the nigrostriatal degeneration (mice [3]) is given as “reduced nigrostriatal degeneration”.
In the case of `O=C1N(c2c(F)cc(C#Cc3ccccc3)cc2F)c2ncc(I)n2C12CC2` [Example 9, 3-[2,6-difluoro-4-(2-phenylethynyl)phenyl]-6-iodo-2,3-dihydrospiro[[1,3]diazolo[1,2-a]imidazole-1,1′-cyclopropane]-2-one], the EC50 (human mGlu4 receptor) is reported as 0.245 µM.
For `O=C(Nc1cc(F)c(N2C(=O)C3(CC3)n3c(CO)cnc32)c(F)c1)c1ccccn1` [Example 56, N-[3,5-difluoro-4-[3′-(hydroxymethyl)-6′-oxo-spiro[cyclopropane-1,5′-imidazo[1,2-a]imidazole]-7′-yl]phenyl]pyridine-2-carboxamide], the EC50 (human mGlu4 receptor) was 0.834 µM.
`Cc1cnc2n1C1(CC1)C(=O)N2c1c(F)cc(C#Cc2ccccc2)cc1F` [Example 47, 3-[2,6-Difluoro-4-(2-phenylethynyl)phenyl]-6-methyl-2,3-dihydrospiro[[1,3]diazolo[1,2-a]imidazole-1,1′-cyclopropane]-2-one] showed an EC50 (human mGlu4 receptor) of 0.181 µM.
Work on `CC1(C)C(=O)N(c2c(F)cc(C#Cc3ccccc3)cc2F)c2nccn21` [Example 5, 1-(2,6-difluoro-4-(phenylethynyl)phenyl)-3,3-dimethyl-1H-imidazo[1,2-a]imidazol-2(3H)-one] yielded an EC50 (human mGlu4 receptor) of 0.468 µM.
For `Cn1ccc(-c2cnc3n2C2(CC2)C(=O)N3c2c(F)cc(-c3ccc(C(C)(F)F)cc3)cc2F)n1` [Example 25, 7′-[4-[4-(1,1-difluoroethyl)phenyl]-2,6-difluoro-phenyl]-3′-(1-methylpyrazol-3-yl)spiro[cyclopropane-1,5′-imidazo[1,2-a]imidazole]-6′-one], the EC50 (human mGlu4 receptor) was 0.1 µM.
Work on `O=C1N(c2c(F)cc(C#Cc3ccccc3)cc2F)c2ncc(-c3ccccc3)n2C12CC2` [Example 24, 3-[2,6-Difluoro-4-(2-phenylethynyl)phenyl]-6-phenyl-2,3-dihydrospiro[[1,3]diazolo[1,2-a]imidazole-1,1′-cyclopropane]-2-one] yielded an EC50 (human mGlu4 receptor) of 0.073 µM.
`O=C(Nc1cc(F)c(N2C(=O)C3(CC3)n3c(-c4ccccn4)cnc32)c(F)c1)c1ccccn1` [Example 11, N-[3,5-difluoro-4-[6′-oxo-3′-(2-pyridyl)spiro[cyclopropane-1,5′-imidazo[1,2-a]imidazole]-7′-yl]phenyl]pyridine-2-carboxamide] showed an EC50 (human mGlu4 receptor) of 0.059 µM.
`O=C1N(c2c(F)cc(C#Cc3ccccc3)cc2F)c2ncc(-c3ccncc3)n2C12CC2` [Example 32, 3-[2,6-Difluoro-4-(2-phenylethynyl)phenyl]-6-(pyridin-4-yl)-2,3-dihydrospiro[[1,3]diazolo[1,2-a]imidazole-1,1′-cyclopropane]-2-one] gave an EC50 (human mGlu4 receptor) of 0.156 µM.
